Reference: patent US9499508B2, “2-pyrones” (MERCK PATENT GMBH, priority 2010, dated 2016)

What was measured:
normal human adipocytes = experiment: Lipolysis, unesterified fatty acids liberated from adipocytes; format: cell-based; conditions: 2 hours; for lipolytic activity, dependence on concentration: 0.25 mM, 0.5 mM, 1 mM and 2 mM
Experimental: The study is carried out using normal human adipocytes originating from the lower abdomen biopsy of a person. The hypodermis is isolated from the biopsy and incubated at 37° C. for 30 minutes with collagenase solution. The separated adipocytes are washed and diluted with assay medium (MEM without Phenol Red, penicillin 25 UI/ml/streptomycin […], L-glutamine 2 mM, bovine serum albumin (BSA), fatty acid-free: 0.5% (p/v)).
The test solutions or the caffeine reference are added to the cell suspensions, and the mixtures are incubated at 37° C. and in a 5% CO2 atmosphere for 2 hours.
After this time, the unesterified fatty acids liberated from the samples are quantified. The measurement is carried out using a Wako NEFA-C test kit in accordance with the instruction manual.

[1] = tested on: calmodulin-like protein (CALML5); experiment: cDNA array, gene expression of CALML5; format: cell-based; conditions: primary epidermal keratinocytes, 24 hours
Experimental: (§1) The assay is carried out using primary epidermal keratinocytes. […] All-trans retinoic acid is used as positive control. The cells are then cultured at 37° C. and under 5% CO2 for 24 hours.
(§2) The mRNA is isolated using the RNEASY Minikit test kit from Qiagen in accordance with the instruction manual. 1 μg of the RNA is then in each case converted into cDNA with the aid of the Firsts Strand cDNA synthesis kit from Roche. The 20 μl of cDNA obtained are diluted 1/10, and 110 μl of TaqMan™ Universal PCR Master Mix are in each case added to 110 μl of the cDNA samples. 100 μl are pipetted per slot into the Custom TaqMan™ array cards. The cards are sealed, centrifuged and then measured using the TaqMan™ 7900HT. The values obtained are standardised. Values less than or equal to −1.5 indicate moderate to strong downregulation of the expression of the genes investigated.

filaggrin (FLG) = experiment: cDNA array, gene expression of FLG; format: cell-based; conditions: primary epidermal keratinocytes, 24 hours
Experimental: (§3) The assay is carried out using primary epidermal keratinocytes. After incubation at 37° C. and in a 5% CO2 atmosphere for 48 hours, the culture medium (DPBS and HyQtase cell detachment solution) is removed, and the test substances 4-hydroxy-6-methyl-2-pyrone Ia (40 μM) and 3-((E)-3,7-dimethylocta-2,6-dienyl)-4-hydroxy-6-methyl-2-pyrone Ii ([…]) in assay medium (keratinocytes basal medium M2 and supplement mix) are added. All-trans retinoic acid is used as positive control. The cells are then cultured at 37° C. and under 5% CO2 for 24 hours.
as §2

involucrin (IVL) = experiment: cDNA array, gene expression of IVL; format: cell-based; conditions: primary epidermal keratinocytes, 24 hours
Experimental: as §1, §2

loricrin (LOR) = experiment: cDNA array, gene expression of LOR; format: cell-based; conditions: primary epidermal keratinocytes, 24 hours
Experimental: as §1, §2

repetin (RPTN) = experiment: cDNA array, gene expression of RPTN; format: cell-based; conditions: primary epidermal keratinocytes, 24 hours
Experimental: as §1, §2

calgranulin A (S100A8) = experiment: cDNA array, gene expression of S100A8; format: cell-based; conditions: primary epidermal keratinocytes, 24 hours
Experimental: as §3, §2

calgranulin B (S100A9) = experiment: cDNA array, gene expression of S100A9; format: cell-based; conditions: primary epidermal keratinocytes, 24 hours
Experimental: as §3, §2

[2] = tested on: transglutaminase 1 (TGM1); experiment: cDNA array, gene expression of TGM1; format: cell-based; conditions: primary epidermal keratinocytes, 24 hours
Experimental: as §3, §2

Corneodesmosin (CDSN) = experiment: cDNA array, gene expression of CDSN; format: cell-based; conditions: primary epidermal keratinocytes, 24 hours
Experimental: as §3, §2
(§4) A second group of genes (Table 2) considered encodes for proteins which correlate with cell-cell connections. Corneodesmosin (CDSN), desmoglein 1 (DSG1), desmoplakin (DSP) and desmocollin 3 (DSC3) are tested, the associated regulation factors are shown in Table 2. […] The downregulation of this protein family is known for retinoids.

desmocollin 3 (DSC3) = experiment: cDNA array, gene expression of DSC3; format: cell-based; conditions: primary epidermal keratinocytes, 24 hours
Experimental: as §3, §2, §4

desmoglein 1 (DSG1) = experiment: cDNA array, gene expression of DSG1; format: cell-based; conditions: primary epidermal keratinocytes, 24 hours
Experimental: as §3, §2, §4

desmoplakin (DSP) = experiment: cDNA array, gene expression of DSP; format: cell-based; conditions: primary epidermal keratinocytes, 24 hours
Experimental: as §3, §2, §4

[3] = tested on: skin explants from the lower abdomen tissue; experiment: Ex-vivo study on skin explants, histology; design: species or system human
Experimental: Histological explants having an average diameter of 10 mm from the lower abdomen tissue of a person are prepared. The pieces of tissue are stored in BEM medium in a moist, 5% CO2 atmosphere at 37° C. The tissue is divided into 3 batches of 6 explants each.
Batch K represents the negative control. Only the vehicle is applied to batch V. Batch P is treated with 4-hydroxy-6-methyl-2-pyrone Ia (1% in Mygliol/ethanol 80/20). 30 μl of the 1% substance solutions in Myliol/ethanol (80/20) are applied using a round filter paper and allowed to act for 2 hours. Applications are carried out on day 0, 1, 4, 6 and 7.
On the 8th day, 3 pieces of tissue from each batch are fixed in Bouin solution. After fixing for 48 hours, the samples are dehydrated by means of Leica TP 1020 and soaked in paraffin. Tissue sections with a thickness of 5 μm are produced from the paraffin blocks using a microtome and mounted on Superfrost specimen slides. The microscopic investigation is carried out using a Leica Orthoplan microscope after the tissue sections mounted on specimen slides have been stained with Masson-Goldner trichrome stain. In order to be able to assess the effect of the substances, the thickness of the epidermis or the change thereof is measured.

For `COc1cc(C)oc(=O)c1` [Ib, 4-Methoxy-6-methyl-2-pyrone], the “lipolytic activity, dependence on concentration” value (normal human adipocytes) was “increase the lipolytic activity as a function of concentration” and the “stimulation of lipolysis (triacylglycerin degradation)” value (“stimulation of lipolysis” for short) (normal human adipocytes; 2 mM) was 82%.

For `Cc1cc(O)cc(=O)o1` [Ia, 4-hydroxy-6-methyl-2-pyrone], the “CALML5 gene expression, standardised value” (from here on “CALML5 gene expression”) ([1]; 40 μM) was −3.14, the “FLG gene expression, standardised value” (filaggrin (FLG); 40 μM) was 1.01 and the “IVL gene expression, standardised value” (involucrin (IVL); 40 μM) was −1.76. The “LOR gene expression, standardised value” (loricrin (LOR); 40 μM) was −4.56, the “RPTN gene expression, standardised value” (repetin (RPTN); 40 μM) was −3.33 and the “S100A8 gene expression, standardised value” (shortened to “S100A8 gene expression”) (calgranulin A (S100A8); 40 μM) was −1.74. For the same molecule, the “S100A9 gene expression, standardised value” (“S100A9 gene expression” below) (calgranulin B (S100A9); 40 μM) was −2.18, the “TGM1 gene expression, standardised value” ([2]; 40 μM) was −1.26 and the “CDSN gene expression, regulation factor” value (Corneodesmosin (CDSN); 40 μM) was −2.14. The “DSC3 gene expression, regulation factor” value (desmocollin 3 (DSC3); 40 μM) was −1.69, the “DSG1 gene expression, regulation factor” value (desmoglein 1 (DSG1); 40 μM) was −1.39 and the “DSP gene expression, regulation factor” value (desmoplakin (DSP); 40 μM) was −1.40. For the same molecule, the “collagen network in the dermis along the dermo-epidermal junction zone” value ([3]; 1% in Mygliol/ethanol 80/20, topical on day 0, 1, 4, 6 and 7, day 8) was “becomes denser” and the “thicker epidermis compared with the vehicle” value ([3]; 1% in Mygliol/ethanol 80/20, topical on day 0, 1, 4, 6 and 7, measured on the 8th day) was 10%.

`CC1=C(/C=C/C(C)=C/C=C/C(C)=C/C(=O)O)C(C)(C)CCC1` [all-trans retinoic acid, All-trans retinoic acid, reference compound] was tested, and the “CALML5 gene expression” value ([1]; 5 μM) was −2.93, the “FLG gene expression, standardised value” (filaggrin (FLG); 5 μM) was −3.20 and the “IVL gene expression, standardised value” (involucrin (IVL); 5 μM) was −4.05. The “LOR gene expression, standardised value” (loricrin (LOR); 5 μM) was −7.01, the “RPTN gene expression, standardised value” (repetin (RPTN); 5 μM) was −2.56 and the “S100A8 gene expression” value (calgranulin A (S100A8); 5 μM) was −3.26. The “S100A9 gene expression” value (calgranulin B (S100A9); 5 μM) was −3.49, the “TGM1 gene expression, standardised value” ([2]; 5 μM) was −3.56 and the “CDSN gene expression, regulation factor” value (Corneodesmosin (CDSN); concentration not given) was −2.37. For the same molecule, the “DSC3 gene expression, regulation factor” value (desmocollin 3 (DSC3); concentration not given) was −1.23, the “DSG1 gene expression, regulation factor” value (desmoglein 1 (DSG1); concentration not given) was −9.22 and the “DSP gene expression, regulation factor” value (desmoplakin (DSP); concentration not given) was −1.56.

In the case of `CCCCC(CC)Oc1cc(C)oc(=O)c1` (centres unmarked) [Ij, 4-(1-Ethylpentyloxy)-6-methyl-2-pyrone], the “lipolytic activity, dependence on concentration” value (normal human adipocytes) is reported as “increase the lipolytic activity as a function of concentration” and the “stimulation of lipolysis” value (normal human adipocytes; 2 mM) is reported as 57%.

`CC(C)=CCC/C(C)=C/Cc1c(O)cc(C)oc1=O` [Ii, 3-((E)-3,7-Dimethylocta-2,6-dienyl)-4-hydroxy-6-methyl-2-pyrone] was tested, and the “CALML5 gene expression” value ([1]; 50 μM) was −2.58, the “FLG gene expression, standardised value” (filaggrin (FLG); 50 μM) was −4.67 and the “IVL gene expression, standardised value” (involucrin (IVL); 50 μM) was −3.82. For the same molecule, the “LOR gene expression, standardised value” (loricrin (LOR); 50 μM) was −1.59, the “RPTN gene expression, standardised value” (repetin (RPTN); 50 μM) was 1.57 and the “S100A8 gene expression” value (calgranulin A (S100A8); 50 μM) was −2.93. The “S100A9 gene expression” value (calgranulin B (S100A9); 50 μM) was −1.48, the “TGM1 gene expression, standardised value” ([2]; 50 μM) was −1.56 and the “CDSN gene expression, regulation factor” value (Corneodesmosin (CDSN); 50 μM) was −13.20. For the same molecule, the “DSC3 gene expression, regulation factor” value (desmocollin 3 (DSC3); 50 μM) was −1.14, the “DSG1 gene expression, regulation factor” value (desmoglein 1 (DSG1); 50 μM) was −8.20 and the “DSP gene expression, regulation factor” value (desmoplakin (DSP); 50 μM) was −1.53. For the same molecule, the “stimulation of lipolysis” value (normal human adipocytes; 1 mM) was −60% and the “stimulation of lipolysis” value (normal human adipocytes; 2 mM) was −67%.
